Reference: paper PMC2954314 (European Journal of Pharmaceutical Sciences, 2010)
Entries after “also recorded” stand apart in the source; their conditions may differ. Counter-ions that a name gives are not always drawn.

Columns and labels:
δ opioid receptor [1] = biological target: δ opioid receptor (Rattus norvegicus, UniProt P33533); type: binding
κ opioid receptor [2] = biological target: κ opioid receptor (Cavia porcellus, UniProt P41144); assay: Opioid receptor competition binding, [3H]U69,593, guinea pig brain membranes
μ opioid receptor = μ opioid receptor (Rattus norvegicus, UniProt P33535); assay: Opioid receptor competition binding, [3H]DAMGO, rat brain membranes
mice [3] = assay: Rotarod test of motor coordination after s.c. administration; type: in vivo, mouse; conditions: 10 mg/kg (dose range 1.25–10 mg/kg), 30 min
mice [4] = assay: Tail-flick test after s.c. administration; type: in vivo; conditions: Mus musculus, sc, 0.5 h, read-out: ED50 Tail-flick test
mice [5] = assay: Hot-plate test after s.c. administration; type: in vivo; conditions: Mus musculus, sc, 0.5 h, read-out: ED50 Hot-plate test
κ opioid receptor [6] = conditions: read-out: Ki κ; ref Spetea et al., 2005; cited from earlier work
δ opioid receptor [7] = conditions: read-out: Ki δ; ref Spetea et al., 2005; cited from earlier work

SMILES: COc1ccc2c3c1O[C@@]1(Cc4ccccc4)C(=O)C=C[C@@]4(OC)[C@@H](C2)N(C)CC[C@]314 [Compound 3, 5β-Benzyl-14-methoxycodeinone hydrochloride]
- Ki (δ opioid receptor [1]): > 10000 nM
- Ki (κ opioid receptor [2]): 1890 ± 453 nM
- Ki (μ opioid receptor): 34.1 ± 6 nM

SMILES: CN1CC[C@]23c4c5ccc(O)c4O[C@H]2[C@@H](O)C=C[C@H]3[C@H]1C5 [Morphine, Morphine hydrochloride]
- Effect on motor coordination (rotarod latencies) (mice [3]): significant effect; also recorded: dose-dependent suppressive effects on motor coordination with significance
- ED50 (mice [4]): 2.29 mg/kg
- ED50 (mice [5]): 2.63 mg/kg
